Data set [1] has as its system recombinant NL4-3 virus (Renilla luciferase in nef) in MT-2 cells. Nature of the data set: whole plant or invertebrate. The format is cell-based, HIV. Conditions: Renilla, NL43, MT-2 cells infected for 4-5 days with recombinant NL4-3 Renilla luciferase virus; luciferase activity. The method, boiled down: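 MT-2 cells infected for 4-5 days with NL4-3 reporter virus (Renilla luciferase replacing part of nef, produced by transfection of 293T cells) in the presence of serial compound dilutions. Antiviral activity quantified by luciferase activity read with a live-cell substrate.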

A short description of data set [2]: Compound cytotoxicity, XTT-based colorimetric assay. The format is cell-based. Conditions: human, uninfected MT2 cells, day 4, XTT. The method, boiled down:
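Run under the antiviral-assay protocol but without virus. Viability was read on day 4 and CC50 values were derived from the readout.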
(In general: Formazan colour is commonly taken as a measure of viable cells.)

One may read the EC50 as the concentration needed to bring the measured effect to its halfway point. As usually defined, the CC50 is the concentration giving 50% cytotoxicity. Read a low CC50 as greater toxicity to the cells. In the case of `Cc1ncc(N(C)C(=O)[C@H](Cc2cc(F)cc(F)c2)NC(=O)NS(=O)(=O)N[C@@H](Cc2cc(F)cc(F)c2)C(=O)N(C)c2cnc(C)c(Cl)c2)cc1Cl` [Example 225], in data set [1], the EC50 came to 0.87 µM. Moreover, the CC50 at 4 days in data set [2] was 2.3 µM.

Regarding `CN(C(=O)[C@H](Cc1cc(F)cc(F)c1)NC(=O)NS(=O)(=O)N[C@@H](Cc1cc(F)cc(F)c1)C(=O)N(C)c1ccc(C(C)(C)C)cc1)c1ccc(C(C)(C)C)cc1` [Example 168], the EC50 in data set [1] is 0.15 µM. For the same compound, in data set [2], the CC50 at 4 days came to 16.2 µM.

Consider `CN(C(=O)[C@H](Cc1cc(F)cc(F)c1)NC(=O)NS(=O)(=O)N[C@@H](Cc1cc(F)cc(F)c1)C(=O)N(C)c1ccc(F)c(F)c1)c1ccc(F)c(F)c1` [Example 215], for which the EC50 in data set [1] stood at 0.31 µM. In addition, the CC50 at 4 days in data set [2] is 34.5 µM.

For the compound `COc1ccc(N(C)C(=O)[C@H](Cc2ccccc2)NC(=O)C(C)(C)C(=O)N[C@@H](Cc2ccccc2)C(=O)N(C)c2ccc(OC)cc2)cc1` [Example 4], the EC50 in data set [1] is 1.87 µM. The same compound gave a CC50 at 4 days in data set [2] not below 100 µM.

With `C=CCN(C(=O)[C@H](Cc1cc(F)cc(F)c1)NC(=O)CC(C)(C)CC(=O)N[C@@H](Cc1cc(F)cc(F)c1)C(=O)N(CC=C)c1ccc(OC)cc1)c1ccc(OC)cc1` [Example 171], in data set [1], the EC50 was found to be 100 µM. The same compound showed a CC50 at 4 days in data set [2] not below 100 µM.

Consider `COc1ccc(N(C)C(=O)[C@H](Cc2cc(F)cc(F)c2)NC(=O)c2cccc(C(=O)N[C@@H](Cc3cc(F)cc(F)c3)C(=O)N(C)c3ccc(OC)cc3)c2)cc1` [Example 49], for which, in data set [1], the EC50 was found to be 0.04 µM. This compound showed a CC50 at 4 days in data set [2] of 10.8 µM.

`COc1ccc(N(C)C(=O)[C@H](Cc2cc(F)cc(F)c2)NC(=O)Cc2cccc(CC(=O)N[C@@H](Cc3cc(F)cc(F)c3)C(=O)N(C)c3ccc(OC)cc3)c2)cc1` [Example 43]: the EC50 in data set [1] amounted to 0.48 µM. The same compound came in with a CC50 at 4 days in data set [2] of 3.7 µM.

For the compound `COc1ccc(N(C)C(=O)[C@H](Cc2ccccc2)NC(=O)c2cc(C(=O)O)cc(C(=O)N[C@@H](Cc3ccccc3)C(=O)N(C)c3ccc(OC)cc3)c2)cc1` [Example 55], the EC50 in data set [1] was 10.1 µM. Moreover, half-maximal cytotoxicity in data set [2] (CC50 at 4 days) was put at 85.8 µM.

`COc1ccc(N(C)C(=O)[C@H](Cc2ccccc2)NC(=O)c2cc(C)cc(C(=O)N[C@@H](Cc3ccccc3)C(=O)N(C)c3ccc(OC)cc3)c2)cc1` [Example 102]: the EC50 in data set [1] was found to be 0.05 µM. The same compound returned a CC50 at 4 days in data set [2] not below 33.3 µM.

Take `COc1ccc(N(C)C(=O)[C@H](Cc2ccccc2)NC(=O)NS(=O)(=O)N[C@@H](Cc2ccccc2)c2nnc(SC)o2)cc1` [Example 6]: the EC50 in data set [1] stood at 6.78 µM. Moreover, in data set [2], the CC50 at 4 days is not below 100 µM.

On to `CN(C(=O)[C@H](Cc1cc(F)cc(F)c1)NC(=O)c1ccc(F)c(C(=O)N[C@@H](Cc2cc(F)cc(F)c2)C(=O)N(C)c2ccc3scnc3c2)c1)c1ccc2scnc2c1` [Example 126], for which the half-maximal effective concentration (EC50) in data set [1] was found to be 0.01 µM. For the same compound, the CC50 at 4 days in data set [2] was not below 100 µM.

Take `CCN(C(=O)[C@H](Cc1cc(F)cc(F)c1)NC(=O)CN1c2ccccc2N(CC(=O)N[C@@H](Cc2cc(F)cc(F)c2)C(=O)N(CC)c2ccc3oc(=O)n(Cc4ccccc4)c3c2)S1(=O)=O)c1ccc2oc(=O)n(Cc3ccccc3)c2c1` [Example 153]: the EC50 in data set [1] came out at 1.54 µM. This compound yielded a CC50 at 4 days in data set [2] of 3.1 µM.

With `COc1ccc(N(C)C(=O)[C@H](Cc2ccccc2)NC(=O)c2cncc(C(=O)N[C@@H](Cc3ccccc3)C(=O)N(C)c3ccc(OC)cc3)n2)cc1` [Example 111], in data set [1], the EC50 worked out at 0.96 µM. In data set [2], the CC50 at 4 days is not below 100 µM.

On to `COc1ccc(N(C)C(=O)[C@H](Cc2cc(F)cc(F)c2)NC(=O)c2cc(Cl)c(Cl)cc2C(=O)N[C@@H](Cc2cc(F)cc(F)c2)C(=O)N(C)c2ccc(OC)cc2)cc1` [Example 255], for which the EC50 in data set [1] is 0.08 µM. Half-maximal cytotoxicity in data set [2] (CC50 at 4 days) was put at 10 µM.

Regarding `COc1ccc(N(C)C(=O)[C@H](Cc2cc(F)cc(F)c2)Nc2ncc(-c3cnc(N[C@@H](Cc4cc(F)cc(F)c4)C(=O)N(C)c4ccc(OC)cc4)nc3)cn2)cc1` [Example 88], the EC50 in data set [1] turned out to be 13.7 µM. It took 20.8 µM to reach half-maximal cytotoxicity in data set [2] (CC50 at 4 days).

Regarding `CN(C(=O)[C@H](Cc1cc(F)cc(F)c1)NC(=O)NS(=O)(=O)N[C@@H](Cc1cc(F)cc(F)c1)C(=O)N(C)c1ccc2scnc2c1)c1ccc2scnc2c1` [Example 18], the EC50 in data set [1] stood at 0.03 µM. In data set [2], this compound displayed a CC50 at 4 days of 85.3 µM.

On to `C=CCN(C(=O)[C@H](Cc1cc(F)cc(F)c1)NC(=O)c1cc(F)c(F)cc1C(=O)N[C@@H](Cc1cc(F)cc(F)c1)C(=O)N(CC=C)c1ccc(OC)cc1)c1ccc(OC)cc1` [Example 192], for which the EC50 in data set [1] turned out to be 7.24 µM. For the same compound, in data set [2], half-maximal cytotoxicity (CC50 at 4 days) was put at 58.2 µM.

`CCOc1ccc(N(CC)C(=O)[C@H](Cc2ccccc2)NC(=O)NS(=O)(=O)N[C@@H](Cc2ccccc2)C(=O)N(CC)c2ccc(OCC)cc2)cc1` [Example 5]: the EC50 in data set [1] was found to be 0.15 µM. This compound also yielded a CC50 at 4 days in data set [2] not below 33.3 µM.

For the compound `COc1ccc(N(C)C(=O)[C@H](Cc2ccccc2)NC(=O)[C@H](Cc2ccccc2)NC(=O)N[C@@H](Cc2ccccc2)C(=O)N[C@@H](Cc2ccccc2)C(=O)N(C)c2ccc(OC)cc2)cc1` [Example 62], the EC50 in data set [1] stood at 0.49 µM. In data set [2], this compound displayed a CC50 at 4 days not below 100 µM.

As to `COc1ccc(N(C)C(=O)[C@H](Cc2ccccc2)NC(=O)C[C@H](O)C(=O)N[C@@H](Cc2ccccc2)C(=O)N(C)c2ccc(OC)cc2)cc1` [Example 32], the EC50 in data set [1] came to 3.29 µM. This compound also yielded a CC50 at 4 days in data set [2] of 34.6 µM.

Regarding `Cc1cc(N(C)C(=O)[C@H](Cc2ccccc2)NC(=O)NS(=O)(=O)N[C@@H](Cc2ccccc2)C(=O)N(C)c2ccc(F)c(C)c2)ccc1F` [Example 229], in data set [1], the EC50 worked out at 2.64 µM. This compound also came in with a CC50 at 4 days in data set [2] of 64.7 µM.

On to `C=CCN(C(=O)[C@H](Cc1cc(F)cc(F)c1)NC(=O)c1ccc(F)c(C(=O)N[C@@H](Cc2cc(F)cc(F)c2)C(=O)N(CC=C)c2ccc(OC)cc2)c1)c1ccc(OC)cc1` [Example 139], for which the EC50 in data set [1] is 0.04 µM. This compound had a CC50 at 4 days in data set [2] not below 33.3 µM.

On to `CCN(C(=O)[C@H](Cc1cc(F)cc(F)c1)NC(=O)NS(=O)(=O)N[C@@H](Cc1cc(F)cc(F)c1)C(=O)N(CC)c1ccc(OC(F)F)cc1)c1ccc(OC(F)F)cc1` [Example 150], for which the EC50 in data set [1] turned out to be 0.01 µM. The CC50 at 4 days in data set [2] amounted to 24.6 µM.

With `COc1ccc(N(CCF)C(=O)[C@H](Cc2cc(F)cc(F)c2)NC(=O)CN2c3ccccc3N(CC(=O)N[C@@H](Cc3cc(F)cc(F)c3)C(=O)N(CCF)c3ccc(OC)cc3)S2(=O)=O)cc1` [Example 122], in data set [1], the EC50 came out at 0.09 µM. The same compound returned a CC50 at 4 days in data set [2] not below 100 µM.

Regarding `CN(C(=O)[C@H](Cc1ccccc1)NC(=O)NS(=O)(=O)N[C@@H](Cc1ccccc1)C(=O)N(C)c1ccc2c(c1)OCO2)c1ccc2c(c1)OCO2` [Example 19], the EC50 in data set [1] stood at 0.17 µM. Further, the CC50 at 4 days in data set [2] amounted to 99.5 µM.

For the compound `COc1ccc(NC(=O)[C@H](Cc2ccccc2)NS(=O)(=O)NC(=O)N[C@@H](Cc2ccccc2)C(=O)N(C)c2ccc(OC)cc2)cc1` [Example 12], the EC50 in data set [1] is 12.4 µM. In addition, it took 29 µM to reach half-maximal cytotoxicity in data set [2] (CC50 at 4 days).

Regarding `CN(C(=O)[C@H](Cc1cc(F)cc(F)c1)NC(=O)CN1c2ccccc2N(CC(=O)N[C@@H](Cc2cc(F)cc(F)c2)C(=O)N(C)c2ccc3c(c2)ncn3C)S1(=O)=O)c1ccc2c(c1)ncn2C` [Example 209], the EC50 in data set [1] is 0.42 µM. The compound also came in with a CC50 at 4 days in data set [2] not below 100 µM.

For `COc1ccc(N(C)C(=O)[C@H](Cc2cc(F)cc(F)c2)NC(=O)c2cc(F)c(F)cc2C(=O)N[C@@H](Cc2cc(F)cc(F)c2)C(=O)N(C)c2ccc(OC)cc2)cc1` [Example 254], the half-maximal effective concentration (EC50) in data set [1] amounted to 0.09 µM. This compound also registered a CC50 at 4 days in data set [2] of 10 µM.

Values taken from patent US20180072997A1, “INHIBITORS OF HUMAN IMMUNODEFICIENCY VIRUS REPLICATION” (ViiV HEATHCARE UK (NO.5) LIMITED, priority 2015, published 2018).
